Values after ≈ are worked out from the molar mass of the structure shown. Where two headings read alike, the source gives them in different places.
How the values were obtained:
[1] = test system: Gram-positive and Gram-negative organisms; details: disclosed in earlier patents; cited from earlier work
mycoplasma organisms = details: disclosed in earlier patents; cited from earlier work
E.coli NCTC 10418 [2] = test: MIC by serial dilution in nutrient agar (human bacteria, Table 1); assay type: cell-based; details: Escherichia coli, NCTC10418, 5% "chocolated" horse blood
E.coli ESS = test: as above; assay type: cell-based; details: Escherichia coli, 5% "chocolated" horse blood
P. mirabilis 889 = test: as above; assay type: cell-based; details: Proteus mirabilis, 5% "chocolated" horse blood
K. aerogenes A = test: as above; assay type: cell-based; details: Klebsiella aerogenes, 5% "chocolated" horse blood
Ps. aeruginosa 10662 = test: as above; assay type: cell-based; details: Pseudomonas aeruginosa, 5% "chocolated" horse blood
[3] = test system: Haemophilus influenzae Q1; test: as above; assay type: cell-based
[4] = test system: Haemophilus influenzae Wy21; test: as above; assay type: cell-based; details: 5% "chocolated" horse blood
[5] = test system: Neisseria catarrhalis 1502; test: as above; assay type: cell-based; details: 5% "chocolated" horse blood
Bacillus subtilis 6633 = test: as above; assay type: cell-based; details: 5% "chocolated" horse blood
[6] = test system: Corynebacterium xerosis 9755; test: as above; assay type: cell-based; details: 5% "chocolated" horse blood
Sarcina lutea 8340 = test: as above; assay type: cell-based; details: Micrococcus luteus, 5% "chocolated" horse blood
Staph.aureus Oxford [7] = test: as above; assay type: cell-based; details: Staphylococcus aureus
Staph.aureus Russell = test: as above; assay type: cell-based; details: Staphylococcus aureus
Strep.faecalis I = test: as above; assay type: cell-based; details: Enterococcus faecalis, 5% "chocolated" horse blood
Strep.pyogenes A 64/848 = test: as above; assay type: cell-based; details: Streptococcus pyogenes, A64/848, 5% "chocolated" horse blood
Strep.pyogenes B 2788 = test: as above; assay type: cell-based; details: Streptococcus pyogenes, B2788, 5% "chocolated" horse blood
Strep.pyogenes C 2761 = test: as above; assay type: cell-based; details: Streptococcus pyogenes, C2761, 5% "chocolated" horse blood
Strep.pneumoniae CN33 = test: as above; assay type: cell-based; details: Streptococcus pneumoniae, 5% "chocolated" horse blood
B. subtilis ATCC 6633 = test: MIC by agar dilution (veterinary bacteria, Table 2); assay type: cell-based; details: Bacillus subtilis, ATCC6633, diagnostic sensitivity test agar, 24 hours, 37° C.
Procedure: (§1) The MIC values were determined by agar dilution using diagnostic sensitivity test agar (Oxoid) using a multipoint inoculator delivering 0.001 ml of an inoculum adjusted to give 10^7 -10^8 organisms per ml and read after 24 hours incubation at 37° C.

Bord.bronchiseptica BO8 = test: as above; assay type: cell-based; details: Bordetella bronchiseptica, diagnostic sensitivity test agar, 24 hours, 37° C.
Procedure: as §1

Bord.bronchiseptica BO9 = test: as above; assay type: cell-based; details: Bordetella bronchiseptica, diagnostic sensitivity test agar, 24 hours, 37° C.
Procedure: as §1

[8] = test system: Corynebacterium pyogenes CY1; test: as above; assay type: cell-based; details: Trueperella pyogenes, diagnostic sensitivity test agar, 24 hours, 37° C.
Procedure: as §1

E.coli E1 = test: as above; assay type: cell-based; details: Escherichia coli, diagnostic sensitivity test agar, 24 hours, 37° C.
Procedure: as §1

E.coli NCTC 10418 [9] = test: as above; assay type: cell-based; details: Escherichia coli, NCTC10418, diagnostic sensitivity test agar, 24 hours, 37° C.
Procedure: as §1

[10] = test system: Erysipelothrix rhusiopathiae NCTC 8163; test: as above; assay type: cell-based; details: NCTC8163, diagnostic sensitivity test agar, 24 hours, 37° C.
Procedure: as §1

Past.haemolytica PA5 = test: as above; assay type: cell-based; details: Mannheimia haemolytica, diagnostic sensitivity test agar, 24 hours, 37° C.
Procedure: as §1

Past.multocida PA1 = test: as above; assay type: cell-based; details: Pasteurella multocida, diagnostic sensitivity test agar, 24 hours, 37° C.
Procedure: as §1

Past.multocida PA2 = test: as above; assay type: cell-based; details: Pasteurella multocida, diagnostic sensitivity test agar, 24 hours, 37° C.
Procedure: as §1

S.dublin S7 = test: as above; assay type: cell-based; details: Salmonella enterica, diagnostic sensitivity test agar, 24 hours, 37° C.
Procedure: as §1

S.typhimurium S18 = test: as above; assay type: cell-based; details: Salmonella enterica, diagnostic sensitivity test agar, 24 hours, 37° C.
Procedure: as §1

[11] = test system: Staph.aureus 152 (pen sens); test: as above; assay type: cell-based; details: Staphylococcus aureus, diagnostic sensitivity test agar, 24 hours, 37° C.
Procedure: as §1

[12] = test system: Staph.aureus B4 (pen resis); test: as above; assay type: cell-based; details: Staphylococcus aureus, diagnostic sensitivity test agar, 24 hours, 37° C.
Procedure: as §1

Staph.aureus Oxford [13] = test: as above; assay type: cell-based; details: Staphylococcus aureus, diagnostic sensitivity test agar, 24 hours, 37° C.
Procedure: as §1

Strep.agalactiae SPA1 = test: as above; assay type: cell-based; details: Streptococcus agalactiae, diagnostic sensitivity test agar, 24 hours, 37° C.
Procedure: as §1

Strep.dysgalactiae SPD1 = test: as above; assay type: cell-based; details: Streptococcus dysgalactiae, diagnostic sensitivity test agar, 24 hours, 37° C.
Procedure: as §1

[14] = test system: Strep.suis (group D) SPS11; test: as above; assay type: cell-based; details: Streptococcus suis, diagnostic sensitivity test agar, 24 hours, 37° C.
Procedure: as §1

Strep.uberis SPU1 = test: as above; assay type: cell-based; details: Streptococcus uberis, diagnostic sensitivity test agar, 24 hours, 37° C.
Procedure: as §1

M.dispar NCTC 10125 [15] = test: Anti-mycoplasmal MIC by serial dilution in Friis broth (Table 3); assay type: cell-based; details: read-out: in vitro MIC
Excerpt: (§2) *Determined by serial dilution in Friis broth (Friis N.F. 1975. Nord. Vet
(§3) Med. 27, 337) in microtiter plates using a modification of the metabolite
(§4) inhibition test (TaylorRobinson D. 1967. Postgrad. Med. J., 43, suppl.

M.pneumoniae 427a = test: as above; assay type: cell-based; details: Mycoplasmoides pneumoniae, read-out: in vitro MIC
Excerpt: as §2, §3, §4

[16] = test system: M.suipneumoniae J2206/183b; test: as above; assay type: cell-based; details: Mesomycoplasma hyopneumoniae, read-out: in vitro MIC
Excerpt: as §2, §3, §4

[17] = test system: Pasteurella multocida 1633; test: MIC by serial dilution in nutrient agar (human bacteria, Table 1); assay type: cell-based; details: Pasteurella multocida 1633; nutrient agar, 5% "chocolated" horse blood; read-out: MIC
Staph. aureus W2827 = test: MIC by serial dilution in nutrient agar (human bacteria, Table 1, footnote b); assay type: cell-based; details: Staphylococcus aureus, Staph. aureus W2827 (footnote b, in line Staph.aureus 1517), 5% "chocolated" horse blood
M.bovis NCTC 10131 = test: Anti-mycoplasmal MIC in Friis broth solidified with agarose (Table 3); assay type: cell-based; details: NCTC10131, 144 h, read-out: in vitro MIC
Procedure: (§5) ^+ Determined in Friis broth solidified with 0.9% agarose. The
(§6) inoculum was 10^3 to 10^5 C.F.U. MIC's were recorded after 6 days

M.dispar NCTC 10125 [18] = test: as above; assay type: cell-based; details: 144 h, 6 days, 37° C., read-out: in vitro MIC
Procedure: as §5, §6

M.hyorhinis ATCC 23234 = test: as above; assay type: cell-based; details: Mesomycoplasma hyorhinis, ATCC23234, 144 h, 6 days, 37° C., read-out: in vitro MIC
Procedure: as §5, §6

M.hyosynoviae ATCC 25591 = test: as above; assay type: cell-based; details: 144 h, 6 days, 37° C., read-out: in vitro MIC
Procedure: as §5, §6

[19] = test system: M.pneumoniae (Mac) ATCC 15492; test: as above; assay type: cell-based; details: Mycoplasmoides pneumoniae, ATCC15492, 144 h, 6 days, 37° C., read-out: in vitro MIC
Procedure: as §5, §6

[20] = test system: M.suipneumoniae J2206/183b; test: as above; assay type: cell-based; details: Mesomycoplasma hyopneumoniae, 144 h, 6 days, 37° C., read-out: in vitro MIC
Procedure: as §5, §6

M.suipneumoniae Str.11 = test: as above; assay type: cell-based; details: Mesomycoplasma hyopneumoniae, 144 h, 6 days, 37° C., read-out: in vitro MIC
Procedure: as §5, §6

C/C(=C\C(=O)O)CC1OCC(CC2OC2C(C)C(C)O)C(O)C1O (stereo not shown) [monic acid A]
antibacterial activity [1]: does not appear to have antibacterial or anti-mycoplasmal activity
anti-mycoplasmal activity (mycoplasma organisms): does not appear to have antibacterial or anti-mycoplasmal activity

CC(=O)C(C)C1OC1CC1COC(C/C(C)=C/C(=O)OCCCCCCCCC(=O)O)C(O)C1O (stereo not shown) [Example 4, Sodium 13--Oxopseudomonate A]
MIC (E.coli NCTC 10418 [2]): > 100 µg/mL
MIC (E.coli ESS): 2.5 µg/mL
MIC (P. mirabilis 889): > 100 µg/mL
MIC (K. aerogenes A): > 100 µg/mL
MIC (Ps. aeruginosa 10662): > 100 µg/mL
MIC ([3]; Haemophilus influenzae, Q1): 0.05 µg/mL
MIC [4]: 0.1 µg/mL
MIC [5]: 0.5 µg/mL
MIC (Bacillus subtilis 6633): 0.1 µg/mL
MIC [6]: > 100 µg/mL
MIC (Sarcina lutea 8340): > 100 µg/mL
MIC (Staph.aureus Oxford [7]; Staph.aureus Oxford, nutrient agar, 5% "chocolated" horse blood, read-out: MIC): 0.2 µg/mL
MIC (Staph.aureus Russell; Staph.aureus Russell, nutrient agar, 5% "chocolated" horse blood, read-out: MIC): 0.5 µg/mL
MIC (Strep.faecalis I): > 100 µg/mL
MIC (Strep.pyogenes A 64/848): 1 µg/mL
MIC (Strep.pyogenes B 2788): 1 µg/mL
MIC (Strep.pyogenes C 2761): 0.5 µg/mL
MIC (Strep.pneumoniae CN33): 0.5 µg/mL
MIC (B. subtilis ATCC 6633): > 80 µg/mL
MIC (Bord.bronchiseptica BO8): 80 µg/mL
MIC (Bord.bronchiseptica BO9): 80 µg/mL
MIC [8]: > 80 µg/mL
MIC (E.coli E1): > 80 µg/mL
MIC (E.coli NCTC 10418 [9]): > 80 µg/mL
MIC [10]: > 80 µg/mL
MIC (Past.haemolytica PA5): 10 µg/mL
MIC (Past.multocida PA1): 0.625 µg/mL
MIC (Past.multocida PA2): 0.625 µg/mL
MIC (S.dublin S7): > 80 µg/mL
MIC (S.typhimurium S18): > 80 µg/mL
MIC [11]: 1.25 µg/mL
MIC [12]: 1.25 µg/mL
MIC (Staph.aureus Oxford [13]): 1.25 µg/mL
MIC (Strep.agalactiae SPA1): 10 µg/mL
MIC (Strep.dysgalactiae SPD1): 1.25 µg/mL
MIC [14]: 20 µg/mL
MIC (Strep.uberis SPU1): 0.312 µg/mL
MIC (M.dispar NCTC 10125 [15]): 3.9 µg/mL
MIC (M.pneumoniae 427a): 250 µg/mL
MIC [16]: 31.2 µg/mL

CCOC(=O)C=C(C)CC1OCC(CC2OC2C(C)C(C)=O)C(O)C1O (stereo not shown) [Example 5, Ethyl 4-(5-(2,3-epoxy-4-methylhexan-5-onyl)-3,4-dihydroxytetrahydropyran-2-yl)-3-methylbut-2-enoate]
MIC (E.coli NCTC 10418 [2]): > 100 µg/mL
MIC (E.coli ESS): 10 µg/mL (≈ 27 µM)
MIC (P. mirabilis 889): 100 µg/mL (≈ 270 µM)
MIC (K. aerogenes A): > 100 µg/mL
MIC (Ps. aeruginosa 10662): > 100 µg/mL
MIC [17]: 10 µg/mL (≈ 27 µM)
MIC ([3]; Haemophilus influenzae Q1, nutrient agar, 5% "chocolated" horse blood, read-out: MIC): 1 µg/mL (≈ 2.7 µM)
MIC [4]: 1 µg/mL (≈ 2.7 µM)
MIC [5]: 2.5 µg/mL (≈ 6.75 µM)
MIC (Bacillus subtilis 6633): 10 µg/mL (≈ 27 µM)
MIC (Staph.aureus Oxford [7]): 5 µg/mL (≈ 13.5 µM)
MIC (Staph.aureus Russell): 5 µg/mL (≈ 13.5 µM)
MIC (Staph. aureus W2827): 5 µg/mL (≈ 13.5 µM)
MIC (Strep.faecalis I): > 100 µg/mL
MIC (Strep.pyogenes A 64/848): 50 µg/mL (≈ 135 µM)
MIC (Strep.pyogenes B 2788): 50 µg/mL (≈ 135 µM)
MIC (Strep.pyogenes C 2761): 100 µg/mL (≈ 270 µM)
MIC (Strep.pneumoniae CN33): 10 µg/mL (≈ 27 µM)
MIC (Bord.bronchiseptica BO8): > 80 µg/mL
MIC (Bord.bronchiseptica BO9): 80 µg/mL (≈ 216 µM)
MIC [8]: > 80 µg/mL
MIC (E.coli E1): > 80 µg/mL
MIC (E.coli NCTC 10418 [9]): > 80 µg/mL
MIC [10]: > 80 µg/mL
MIC (Past.haemolytica PA5): 10 µg/mL (≈ 27 µM)
MIC (Past.multocida PA1): 2.5 µg/mL (≈ 6.75 µM)
MIC (Past.multocida PA2): 0.625 µg/mL (≈ 1.69 µM)
MIC (S.dublin S7): > 80 µg/mL
MIC (S.typhimurium S18): > 80 µg/mL
MIC [11]: 0.625 µg/mL (≈ 1.69 µM)
MIC [12]: 0.625 µg/mL (≈ 1.69 µM)
MIC (Staph.aureus Oxford [13]): 0.625 µg/mL (≈ 1.69 µM)
MIC (Strep.agalactiae SPA1): 20 µg/mL (≈ 54 µM)
MIC (Strep.dysgalactiae SPD1): 20 µg/mL (≈ 54 µM)
MIC [14]: > 80 µg/mL
MIC (Strep.uberis SPU1): 2.5 µg/mL (≈ 6.75 µM)
MIC (M.bovis NCTC 10131): 0.1 µg/mL (≈ 0.27 µM)
MIC (M.dispar NCTC 10125 [18]): 1 µg/mL (≈ 2.7 µM)
MIC (M.hyorhinis ATCC 23234): 5 µg/mL (≈ 13.5 µM)
MIC (M.hyosynoviae ATCC 25591): 2.5 µg/mL (≈ 6.75 µM)
MIC [19]: > 10 µg/mL
MIC [20]: 5 µg/mL (≈ 13.5 µM)
MIC (M.suipneumoniae Str.11): 2.5 µg/mL (≈ 6.75 µM)

From patent US4374147A, “13-Oxo-monic acid esters useful as antibacterial and antimycoplasmal agents” (Beecham Group Limited, priority 1980, dated 1983)
